{
  "source": "paper PMC10770970",
  "about": "“Synthesis and cytotoxic activity evaluation of novel imidazopyridine carbohydrazide derivatives” (BMC Chemistry, 2024)",
  "key": {"[1]": {"test_system": "Vero (kidney epithelial cells of African green monkey) cells", "assay": "MTT reduction cytotoxicity assay, Vero non-cancer cells", "assay_type": "cell-based", "details": "72 h, ± S.E.M., max tested 100 µM", "description": "(§1) All synthesized compounds were evaluated for cytotoxic activity against three human cancer cell lines including MCF-7, HT-29, and K562 by employing an MTT (3-(4,5-dimethylthiazol-2-yl)-2,5-diphenyltetrazolium bromide) assay. […] Cisplatin and doxorubicin were tested as standard chemotherapeutic reference agents.\n(§2) MCF-7 (human breast adenocarcinoma), HT-29 (Human colorectal adenocarcinoma), K562 (human chronic myelogenous leukemia), and Vero (kidney epithelial cells of African green monkey) cells were obtained from Iranian Biological Resource Center, Tehran, Iran. MCF-7, K562, and Vero cells were cultured in RPMI 1640 medium containing 10% heat-inactivated fetal bovine serum (FBS) and 1% penicillin/streptomycin, while HT-29 cells were grown in DMEM low glucose, containing 20% heat-inactivated FBS and 1% penicillin/streptomycin. All cells were grown in monolayer culture at 37 °C in a humidified incubator with 5% CO2.\n(§3) Assessment of cell viability after exposure of cancer and non-cancer cells to synthetic compounds was performed using the MTT (3-(4,5-dimethylthiazol-2-yl)-2,5-diphenyltetrazolium bromide) reduction assay. Cells were plated in 96-well microplates at densities of 30,000 cells/mL (100 μL in each well). The plates were incubated overnight at 37 °C and then 50 μL of the growth medium was replaced with the same amount of fresh medium containing 3–4 different concentrations of synthesized analogs at the final concentrations of 10–100 µM. Test compounds were initially dissolved in DMSO and then diluted in the growth medium. The upper limit of DMSO concentration in each well was 0.5%. After 72 h of incubation, 80 μL of the solution in each well was substituted with the same quantity of the growth medium comprising of MTT solution at 0.5 mg/mL. Cells were subsequently incubated at 37 °C for 4 h and then 80 μL of the solution in each well was removed. The introduction of DMSO (200 μL) to each well caused the formazan crystals formed inside the viable cells to dissolve. The process lasted 1.5 h (1 h of incubation and 30 min of shaking). The optical absorbance of the final solution was quantified at the wavelength of 570 nm using a microplate reader. IC50 values for all derivatives were calculated using CurveExpert 1.34 software."}, "[2]": {"test_system": "K562 (human chronic myelogenous leukemia) cells", "assay": "MTT reduction cytotoxicity assay, K562", "assay_type": "cell-based", "details": "Homo sapiens, K562, 72 h, ± S.E.M., max tested 100 µM", "description": "as §1, §2, §3"}, "[3]": {"test_system": "MCF-7 (human breast adenocarcinoma) cells", "assay": "MTT reduction cytotoxicity assay, MCF-7", "assay_type": "cell-based", "details": "Homo sapiens, MCF7, 72 h, ± S.E.M., max tested 100 µM", "description": "as §1, §2, §3"}, "[4]": {"test_system": "HT-29 (Human colorectal adenocarcinoma) cells", "assay": "MTT reduction cytotoxicity assay, HT-29", "assay_type": "cell-based", "details": "Homo sapiens, HT-29, 72 h, ± S.E.M., max tested 100 µM", "description": "as §1, §2, §3"}, "MCF-7 cells [5]": {"test_system": "MCF-7 cells", "assay": "Cell cycle analysis by RNase/propidium iodide flow cytometry", "assay_type": "cell-based, human", "details": "48 h; for Percent of MCF-7 cells in Sub G1: control 0.8 ± 0.3; for Percent of MCF-7 cells in S: control 11.7 ± 2.3; for Percent of MCF-7 cells in G2/M: control 26.1 ± 2.9; for Percent of MCF-7 cells in G0/G1: control 61.4 ± 1.4", "description": "Fig. 3 Effect of compound 7d on cell cycle phase distribution of MCF-7 cells. The analysis of cells in different phases of the cell cycle was performed using propidium iodide (PI)-based assessment of cell cycle by flow cytometry. […] The cells were then collected, washed with PBS and fixed with 70% ethanol overnight at −20 °C. After 24 h, the fixed cells were incubated in a PI-RNase solution at room temperature and 10,000 cells were analyzed using a FACS Calibur flow cytometer (BD Biosciences)\nThe analysis of cells in different phases of the cell cycle and the sub-G1 phase were monitored using RNase/propidium iodide (PI)-based assessment of the cell cycle by flow cytometry. […] At the end of the incubation, the culture media in each well were collected and the cells were washed with PBS. Then, they were fixed with 70% ethanol overnight at −20 °C. After 24 h, the fixed cells were washed with PBS and subsequently stained with DNA staining solution (PI 20 μg/mL and RNase 200 μg/mL) at room temperature for 30 min in the dark. Ten thousand cells of each sample were analyzed using a FACS Calibur flow cytometer (BD Biosciences) and the percentage of the cells in sub-G1, G0/G1, S, and G2/M phases were calculated using CellQuest (BD, USA) software."}, "MCF-7 cells [6]": {"test_system": "MCF-7 cells", "assay": "Apoptosis by Hoechst 33,258 staining", "assay_type": "cell-based, human", "details": "100 µM, 72 h", "description": "This also further adds to the potential value of this derivative as an anticancer agent, as it is known that apoptosis evasion is an important hallmark of cancer, and apoptosis induction capacity is an important feature of any successful therapeutic agent.\nFig. 4 Measurement of apoptosis induced by Hoechst 33,258 staining assay. […] The cells were then stained with 2.5 µg/ml Hoechst 33,258 after being fixed with 4% cold paraformaldehyde (PFA) and imaged using a fluorescence microscope (Magnification: 500 X). Apoptotic cells as featured by nuclear shrinkage, fragmentation, condensation, etc., are shown by red arrows\nHoechst 33,258 staining assay was used to determine apoptosis induction in cancer cells. Hoechst 33,258 is a fluorescent dye that binds to minor grooves in DNA and is commonly used to determine the characteristic features of apoptosis including condensation and fragmentation, etc. in the cell’s nuclei. MCF-7 cells were cultured in 6-well plates at a density of 10^5 cells/ml and exposed to 100 µM of compound 7d for 72 h. The growth medium was completely removed at the end of the incubation time and the cells were fixed with 1 ml of 4% cold freshly prepared paraformaldehyde (PFA) and incubated for 20 min. […] In the end, the cells were washed twice with PBS and imaged with a fluorescence microscope (Nikon model DS-Ri2)."}},
  "note": "“Also recorded” adds a separate entry of the source.",
  "data": [
    {"smiles": "O=C(NN=Cc1ccc(Br)cc1)c1cn2ccccc2n1", "note": "[Compound 7d, N´-(4-bromobenzylidene)imidazo[1,2-a]pyridine-2-carbohydrazide]", "values": [
      {"measurement": "IC50 Vero", "setting": "[1]", "value": "completely inactive; also recorded: no toxic effect"},
      {"measurement": "IC50", "setting": "[1]; Chlorocebus sabaeus, Vero", "value": "> 100", "unit": "µM"},
      {"measurement": "IC50", "setting": "[2]", "value": "> 100", "unit": "µM"},
      {"measurement": "melting point", "value": "230 to 232", "unit": "°C"},
      {"measurement": "IC50", "setting": "[3]", "value": "22.6 ± 1", "unit": "µM"},
      {"measurement": "IC50", "setting": "[4]", "value": "13.4 ± 1.3", "unit": "µM"},
      {"measurement": "Percent of MCF-7 cells in Sub G1", "setting": "MCF-7 cells [5]; 7d 20 µM", "value": "0.8 ± 0.6", "unit": "%"},
      {"measurement": "Percent of MCF-7 cells in S", "setting": "MCF-7 cells [5]; 7d 20 µM", "value": "11.9 ± 5.7", "unit": "%"},
      {"measurement": "Percent of MCF-7 cells in G2/M", "setting": "MCF-7 cells [5]; 7d 20 µM", "value": "23.3 ± 10.0", "unit": "%"},
      {"measurement": "Percent of MCF-7 cells in G0/G1", "setting": "MCF-7 cells [5]; 7d 20 µM", "value": "64.2 ± 7.6", "unit": "%"},
      {"measurement": "Percent of MCF-7 cells in Sub G1", "setting": "MCF-7 cells [5]; 7d 50 µM", "value": "0.8 ± 0.6", "unit": "%"},
      {"measurement": "Percent of MCF-7 cells in S", "setting": "MCF-7 cells [5]; 7d 50 µM", "value": "11.1 ± 4.9", "unit": "%"},
      {"measurement": "Percent of MCF-7 cells in G2/M", "setting": "MCF-7 cells [5]; 7d 50 µM", "value": "21.1 ± 8.8", "unit": "%"},
      {"measurement": "Percent of MCF-7 cells in G0/G1", "setting": "MCF-7 cells [5]; 7d 50 µM", "value": "67.0 ± 8.4", "unit": "%"},
      {"measurement": "Percent of MCF-7 cells in Sub G1", "setting": "MCF-7 cells [5]; 7d 100 µM", "value": "1.1 ± 0.9", "unit": "%"},
      {"measurement": "Percent of MCF-7 cells in S", "setting": "MCF-7 cells [5]; 7d 100 µM", "value": "10.2 ± 5.3", "unit": "%"},
      {"measurement": "Percent of MCF-7 cells in G2/M", "setting": "MCF-7 cells [5]; 7d 100 µM", "value": "21.5 ± 7.2", "unit": "%"},
      {"measurement": "Percent of MCF-7 cells in G0/G1", "setting": "MCF-7 cells [5]; 7d 100 µM", "value": "67.2 ± 7.5", "unit": "%"},
      {"measurement": "Effect on cell cycle phase distribution (in words)", "setting": "MCF-7 cells [5]; MCF-7 cells", "value": "dose-dependent increase in the G0/G1 phase and a concomitant decrease in the G2/M phase; also recorded: increased the number of MCF-7 cells in the G0/G1 phase; also recorded: increase the number of cancer cells in the G0/G1 phase"},
      {"measurement": "Apoptosis induction (in words)", "setting": "MCF-7 cells [6]", "value": "induce apoptosis; also recorded: clear signs of apoptosis including nuclear condensation and fragmentation"}
    ]}
  ]
}
